In patent US12522614B2, “Topical phosphoinositide 3-kinase inhibitors” (VENTHERA, INC., priority 2019, dated 2026):
Values belong to the compound of their own block, whether it stands above or below them.

Tests used:
[1] = molecular target: T1, PI3K (p110a(H1047R)/p85a) (Homo sapiens, UniProt P42336, H1047R); experiment: Lipid kinase inhibitory activity, ADP-Glo; type: biochemical; details: α H1047R
T1 construct: purchased Reaction Biology Corporation (RBC)
Procedure: (§1) Lipid kinases: Lipid kinases from Reaction Biology Corporation (RBC) in ADP-Glo format were used.
(§2) Assay Description: The kinase reactions utilized ATP and produced ADP as a byproduct. The ADP production was quantified by ADP-Glo luminescence detection. This assay was a 3-step reaction. First, the kinase reaction with lipid substrate was carried out in the presence of ATP, and the reaction was quenched and depleted remaining ATP with ADP-Glo™ reagent, and then finally ADP was converted to ATP which was measured using a luciferase/luciferin reaction.
(§3) Assay Procedure: The assay was performed according to the steps as follows: • 1. Preparing substrate in freshly prepared reaction buffer; • 2. Delivering kinase into the substrate solution and gently mixing; • 3. Delivering compounds in […] into the kinase reaction mixture by Acoustic technology (Echo550; nanoliter range), incubating for 20 minutes at room temperature; • 4. Delivering ATP into the reaction mixture to initiate the reaction; • 5. Incubating for 30 minutes at 30° C.; • 6. Quenching the reaction with ADP-Glo reagent and incubating for 40 minutes; • 7. Adding Detection Mixture and incubating for 30 minutes; and • 8. Measuring luminescence.
(§4) Data Analysis: The luminescence was converted into μM ADP production based on ADP standard curves. The nonlinear regression to obtain the standard curve and IC50 values were performed using Graphpad Prism software.

PI3Kb (p110b/p85a) = molecular target: T2, PI3Kb (p110b/p85a) (Homo sapiens, UniProt P42338); experiment: Lipid kinase inhibitory activity, ADP-Glo; type: biochemical; details: β
T2 construct: purchased Reaction Biology Corporation (RBC)
Procedure: as §1, §2, §3, §4

PI3Kd (p110d/p85a) = molecular target: T3, PI3Kd (p110d/p85a) (Homo sapiens, UniProt O00329); experiment: Lipid kinase inhibitory activity, ADP-Glo; type: biochemical; details: δ
T3 construct: purchased Reaction Biology Corporation (RBC)
Procedure: as §1, §2, §3, §4

PI3Ka (p110a/p85a) = molecular target: T4, PI3Ka (p110a/p85a) (Homo sapiens, UniProt P42336); experiment: Lipid kinase inhibitory activity, ADP-Glo; type: biochemical; details: α
T4 construct: purchased Reaction Biology Corporation (RBC)
Procedure: as §1, §2, §3, §4

PI3K (p110a(E542K)/p85a) = molecular target: T5, PI3K (p110a(E542K)/p85a) (Homo sapiens, UniProt P42336, E542K); experiment: Lipid kinase inhibitory activity, ADP-Glo; type: biochemical; details: α E542K
T5 construct: purchased Reaction Biology Corporation (RBC)
Procedure: as §1, §2, §3, §4

PI3Kg (p110g) = molecular target: T6, PI3Kg (p110g) (Homo sapiens, UniProt P48736); experiment: Lipid kinase inhibitory activity, ADP-Glo; type: biochemical; details: γ
T6 construct: purchased Reaction Biology Corporation (RBC)
Procedure: as §1, §2, §3, §4

MTOR/FRAP1 = molecular target: T7, MTOR/FRAP1 (Homo sapiens, UniProt P42345); experiment: Lipid kinase inhibitory activity, ADP-Glo; type: biochemical
T7 construct: purchased Reaction Biology Corporation (RBC)
Procedure: as §1, §2, §3, §4

PI3K (p110a(E545K)/p85a) = molecular target: T8, PI3K (p110a(E545K)/p85a) (Homo sapiens, UniProt P42336, E545K); experiment: Lipid kinase inhibitory activity, ADP-Glo; type: biochemical; details: α E545K
T8 construct: purchased Reaction Biology Corporation (RBC)
Procedure: as §1, §2, §3, §4

[2] = Accelerated stability study of topical gel formulations at 80° C.; type: physicochemical; details: gel formulation, 3 days
[3] = as above; type: physicochemical; details: for percent hydrolysis to the parent compound MTPP: gel formulation; for percent hydrolysis to the parent compound MTPP / Relative Purity: 80° C.; for Relative Purity: gel formulation (Table 2 excipients)
Procedure: Topical gel formulations were prepared using excipients as shown in Table 2 according to Example 8, in which Compounds 1.002, 1.012, and 1.006 were used as the active ingredient, respectively. These gel formulations were subjected to stability study at 80° C. for 10 days. Stability under the condition of at 80° C. for 10 days is expected to be approximately equivalent to the stability for three (3) years at room temperature. A relative purity of the tested compound after being exposed for 5 days and 10 days at 80° C. was determined by HPLC, as compared to its initial purity (at day 0).
The values shown in the table are percent hydrolysis of the respective compounds to the parent compound MTPP.
Topical gel formulations of Compound 1.002 were prepared using excipients as shown in Table 2 according to Example 8, in which the content of oleic acid varied at 1%, 2%, 5%, and 10%, respectively. These gel formulations were subjected to stability study at 80° C. for 10 days, which is expected to be approximately equivalent to the stability for three (3) years at room temperature. A purity of the tested compound on day 0, 5, 7, and 10 at 80° C. was determined by HPLC. The detected impurity of the tested compound appears to be the hydrolysis product, as MTPP. Table 17 represents stability data of Compound 1.002 in topical formulations having oleic acid at various contents.
Gel formulations of Example 17 were subjected to stability study at 80° C. for 10 days. Stability under the condition of at 80° C. for 10 days is expected to be approximately equivalent to the stability for three (3) years at room temperature. A relative purity of Compound 1.002 after being exposed for 5 days and 10 days at 80° C. was determined by HPLC, as compared to its initial purity (at day 0).

[4] = Saturation concentration in formulation or receiver medium; type: physicochemical; details: gel formulation with excipients of Example 8 (Table 2)
Procedure: The liquid excipients, i.e. DMSO, oleic acid, Transcutol® P, and dipropylene glycol were mixed in a 20-mL vial, by vortex agitation. The active ingredient, a compound of formula (I), for example Compound 1.002 was then added, and the vial content was sonicated for 10 minutes to dissolve the compound. […] Hydroxylpropyl cellulose (HPC) was added, and the vial was agitated by vortex for another ten minutes to obtain the gel formulation. The viscosity of the clear gel was measured to be in a range of about 7,000 to 10,000 centipoise (cp).
(§5) Skin flux studies were run for a period of 48 hours. At predetermined intervals (2, 4, 8, 24 and 48 hours) after starting the experiment, the entire contents of the receiver compartment were collected for determining concentrations of the drug by HPLC. The receiver compartment was refilled with fresh receiver medium. The receiver medium was pH 7.4 phosphate buffer with 0.5 mg/ml of Oleath 20 with the saturation concentration of the drug in the receptor medium being 0.152 mg/ml. This solubility of the drug in the receiver medium was enough to ensure sink conditions throughout each collection interval.

[5] = In vitro human skin permeation study of topical gel formulations (Franz diffusion cells); type: in vitro ADME; details: saturated gel formulations, skin flux experiments
Source text: The gel formulation of Example 8 was used as the donor phase to determine the permeation of Compound 1.002 through human skin and its effectiveness as a topical application. Three skin donors and three diffusion cells (for each donor) per formulation were used in the in vitro skin permeation experiments. Split thickness dermatomed (approximately at […] thickness) human cadaver skin, supplied by New York Firefighters Skin Bank, NY, was used to determine the permeation rate of the tested compound (i.e., the drug) in vitro. All in vitro skin permeation studies were conducted using the Vertical Diffusion Cells assembly with consoles (Model FDC-6), and heating controllers (Logan Instruments Inc. Somerset, NJ). Each assembly consisted of six vertical, jacketed (37° C.±0.5° C.) 12-mL Franz diffusion cells with magnetic stirrer and 1.767 cm^2 diffusion area.
as §5
Samples of the receptor phase were obtained at 2, 4, 8, 12, 24 and 48 h and concentrations of Compound 1.002 and 3-(4-morpholinothieno(3,2-d)pyrimidin-2-yl)phenol (metabolite of Compound 1.002, abbreviated as MTPP) were determined using a validated HPLC method. The metabolism of Compound 1.002 to MTPP takes place in the human skin by esterase enzymes.
HPLC method: Column—Gemini C-18 4.6×150 mm, 5 μm particle size; Mobile Phase—water:acetonitrile 25:75 containing 0.1% TFA; Flow Rate—1 mL/min; Detection—274 nm; Column Temperature—40° C.; and Run Time—10 min. The retention times for MTPP and Compound 1.002 were 3.9 and 7.2 minutes, respectively.
The skin flux of drugs and cumulative amount of drugs permeated (sum of MTPP and Compound 1.002) for a period of 48 hours were calculated and are shown in Table 3. FIG. 3 represents a plot of Cumulative amount permeated versus time.

[6] = as above; type: in vitro ADME; details: human skin
[7] = Study-5, Table 6A experiment, saturated gel, 2 h
[8] = Study-5, Table 6A experiment, saturated gel, 4 h
[9] = Study-5, Table 6A experiment, saturated gel, 8 h
[10] = Study-5, Table 6A experiment, saturated gel, 24 h
[11] = Study-5, Table 6A experiment, saturated gel, 48 h
[12] = Study-5, Table 6B experiment, gel saturated at 215 mg/mL, 2 h
[13] = Study-5, Table 6B experiment, gel saturated at 215 mg/mL, 4 h
[14] = Study-5, Table 6B experiment, gel saturated at 215 mg/mL, 8 h
[15] = Study-5, Table 6B experiment, gel saturated at 215 mg/mL, 24 h
[16] = Study-5, Table 6B experiment, gel saturated at 215 mg/mL, 48 h

T1 sequence (P42336 whole entry H1047R): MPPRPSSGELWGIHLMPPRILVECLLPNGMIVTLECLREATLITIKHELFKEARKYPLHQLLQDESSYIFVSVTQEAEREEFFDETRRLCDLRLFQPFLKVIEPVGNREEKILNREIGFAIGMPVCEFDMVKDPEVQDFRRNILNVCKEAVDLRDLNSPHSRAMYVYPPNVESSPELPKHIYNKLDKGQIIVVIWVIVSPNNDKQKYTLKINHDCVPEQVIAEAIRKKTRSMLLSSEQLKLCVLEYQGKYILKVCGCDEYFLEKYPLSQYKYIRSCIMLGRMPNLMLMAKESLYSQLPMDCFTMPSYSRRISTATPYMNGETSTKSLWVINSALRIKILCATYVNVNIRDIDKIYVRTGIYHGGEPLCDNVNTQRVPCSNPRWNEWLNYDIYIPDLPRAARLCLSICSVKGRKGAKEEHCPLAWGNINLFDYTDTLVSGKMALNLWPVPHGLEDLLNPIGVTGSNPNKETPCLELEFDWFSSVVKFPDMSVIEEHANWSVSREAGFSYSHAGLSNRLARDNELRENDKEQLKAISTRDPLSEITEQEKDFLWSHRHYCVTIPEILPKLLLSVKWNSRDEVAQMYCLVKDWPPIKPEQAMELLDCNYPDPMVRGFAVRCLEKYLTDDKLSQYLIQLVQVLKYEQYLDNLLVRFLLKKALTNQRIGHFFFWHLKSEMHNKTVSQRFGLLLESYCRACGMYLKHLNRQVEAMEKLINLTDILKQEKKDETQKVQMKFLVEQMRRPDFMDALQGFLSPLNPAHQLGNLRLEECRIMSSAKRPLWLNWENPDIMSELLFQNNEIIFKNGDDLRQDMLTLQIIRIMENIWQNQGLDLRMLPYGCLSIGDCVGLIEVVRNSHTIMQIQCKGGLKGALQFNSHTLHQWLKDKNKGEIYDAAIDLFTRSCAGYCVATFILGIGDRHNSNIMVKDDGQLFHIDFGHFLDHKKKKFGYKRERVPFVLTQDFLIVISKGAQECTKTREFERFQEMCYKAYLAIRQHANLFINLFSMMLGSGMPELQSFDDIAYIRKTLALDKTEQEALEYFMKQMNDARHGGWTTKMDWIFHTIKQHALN
T1 sequence (P27986 whole entry partner): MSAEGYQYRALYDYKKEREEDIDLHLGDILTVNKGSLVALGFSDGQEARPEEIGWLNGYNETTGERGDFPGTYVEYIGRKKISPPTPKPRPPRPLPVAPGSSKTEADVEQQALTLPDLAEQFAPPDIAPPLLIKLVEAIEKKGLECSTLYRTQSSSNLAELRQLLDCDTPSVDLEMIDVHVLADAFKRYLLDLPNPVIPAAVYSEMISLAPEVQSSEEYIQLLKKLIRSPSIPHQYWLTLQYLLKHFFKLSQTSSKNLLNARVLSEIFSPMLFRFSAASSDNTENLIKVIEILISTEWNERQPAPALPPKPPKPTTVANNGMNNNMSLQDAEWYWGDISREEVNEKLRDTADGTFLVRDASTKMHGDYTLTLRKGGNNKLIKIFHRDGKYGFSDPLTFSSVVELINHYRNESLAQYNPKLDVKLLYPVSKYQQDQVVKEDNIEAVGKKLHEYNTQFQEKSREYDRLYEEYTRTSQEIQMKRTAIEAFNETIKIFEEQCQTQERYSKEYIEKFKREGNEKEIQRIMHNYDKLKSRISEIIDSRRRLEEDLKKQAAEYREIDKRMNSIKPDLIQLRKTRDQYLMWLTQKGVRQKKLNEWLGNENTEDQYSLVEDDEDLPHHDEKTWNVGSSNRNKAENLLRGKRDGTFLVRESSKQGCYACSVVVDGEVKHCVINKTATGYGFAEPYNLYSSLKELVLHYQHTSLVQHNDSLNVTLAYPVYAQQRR
T3 sequence (O00329 whole entry): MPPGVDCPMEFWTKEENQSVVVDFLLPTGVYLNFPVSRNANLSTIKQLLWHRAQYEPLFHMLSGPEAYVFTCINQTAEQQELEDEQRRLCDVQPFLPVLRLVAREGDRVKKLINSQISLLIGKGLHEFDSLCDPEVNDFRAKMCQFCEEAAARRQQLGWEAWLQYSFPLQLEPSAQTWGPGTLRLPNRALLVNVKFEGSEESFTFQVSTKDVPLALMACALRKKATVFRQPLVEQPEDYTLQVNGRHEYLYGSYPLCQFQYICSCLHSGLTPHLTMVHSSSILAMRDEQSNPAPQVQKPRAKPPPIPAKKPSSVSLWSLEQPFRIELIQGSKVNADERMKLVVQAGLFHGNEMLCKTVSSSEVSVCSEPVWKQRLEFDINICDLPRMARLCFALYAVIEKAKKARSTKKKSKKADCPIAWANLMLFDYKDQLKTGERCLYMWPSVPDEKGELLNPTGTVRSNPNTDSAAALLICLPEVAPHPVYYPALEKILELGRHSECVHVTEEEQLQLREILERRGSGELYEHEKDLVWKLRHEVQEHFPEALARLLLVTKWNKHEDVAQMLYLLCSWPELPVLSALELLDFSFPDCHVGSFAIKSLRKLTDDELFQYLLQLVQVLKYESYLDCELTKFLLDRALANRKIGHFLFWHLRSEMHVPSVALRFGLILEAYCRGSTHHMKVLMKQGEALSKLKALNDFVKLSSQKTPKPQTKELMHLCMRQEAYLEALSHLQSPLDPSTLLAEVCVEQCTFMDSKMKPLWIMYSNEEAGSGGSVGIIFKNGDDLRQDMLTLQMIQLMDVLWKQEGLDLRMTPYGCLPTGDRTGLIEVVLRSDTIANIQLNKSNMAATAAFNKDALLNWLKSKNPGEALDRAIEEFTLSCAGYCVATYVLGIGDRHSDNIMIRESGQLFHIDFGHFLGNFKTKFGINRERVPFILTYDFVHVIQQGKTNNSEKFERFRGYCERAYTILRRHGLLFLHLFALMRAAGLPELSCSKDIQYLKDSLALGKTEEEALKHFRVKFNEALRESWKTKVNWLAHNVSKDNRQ
T3 sequence (P27986 whole entry partner): as the sequence (P27986 whole entry partner) above
T2 sequence (P42338 whole entry): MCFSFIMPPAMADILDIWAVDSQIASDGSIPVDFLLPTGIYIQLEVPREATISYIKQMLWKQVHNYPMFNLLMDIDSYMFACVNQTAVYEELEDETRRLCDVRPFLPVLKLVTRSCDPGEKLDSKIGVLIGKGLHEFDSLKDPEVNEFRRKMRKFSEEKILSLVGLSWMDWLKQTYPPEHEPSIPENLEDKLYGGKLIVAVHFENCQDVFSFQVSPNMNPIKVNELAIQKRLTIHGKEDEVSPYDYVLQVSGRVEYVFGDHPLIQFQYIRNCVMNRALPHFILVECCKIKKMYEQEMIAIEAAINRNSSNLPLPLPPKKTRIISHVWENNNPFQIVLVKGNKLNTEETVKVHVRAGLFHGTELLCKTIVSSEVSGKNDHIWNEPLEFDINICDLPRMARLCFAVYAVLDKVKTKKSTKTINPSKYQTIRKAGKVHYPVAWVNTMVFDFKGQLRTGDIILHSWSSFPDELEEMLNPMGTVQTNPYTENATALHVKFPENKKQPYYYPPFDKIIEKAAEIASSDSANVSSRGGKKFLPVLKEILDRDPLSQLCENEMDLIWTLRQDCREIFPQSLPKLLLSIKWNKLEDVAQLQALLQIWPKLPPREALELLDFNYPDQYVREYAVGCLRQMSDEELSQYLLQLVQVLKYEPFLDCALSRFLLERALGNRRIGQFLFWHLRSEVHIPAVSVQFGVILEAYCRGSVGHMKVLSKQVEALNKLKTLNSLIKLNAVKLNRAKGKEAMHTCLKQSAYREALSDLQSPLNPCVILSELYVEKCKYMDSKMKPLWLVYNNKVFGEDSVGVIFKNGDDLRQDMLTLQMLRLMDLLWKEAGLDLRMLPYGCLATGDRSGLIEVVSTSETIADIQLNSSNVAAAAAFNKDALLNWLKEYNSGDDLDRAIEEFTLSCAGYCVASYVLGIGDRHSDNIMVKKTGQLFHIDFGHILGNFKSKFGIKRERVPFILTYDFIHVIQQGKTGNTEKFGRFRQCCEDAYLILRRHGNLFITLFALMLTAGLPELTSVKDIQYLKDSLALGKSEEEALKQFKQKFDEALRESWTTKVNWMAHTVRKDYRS
T2 sequence (P27986 whole entry partner): as the sequence (P27986 whole entry partner) above
T8 sequence (P42336 whole entry E545K): as the sequence (P42336 whole entry H1047R) above, with E545K, R1047H counted along it
T8 sequence (P27986 whole entry partner): as the sequence (P27986 whole entry partner) above
T4 sequence (P42336 whole entry): as the sequence (P42336 whole entry H1047R) above, with R1047H counted along it
T4 sequence (P27986 whole entry partner): as the sequence (P27986 whole entry partner) above
T5 sequence (P42336 whole entry E542K): as the sequence (P42336 whole entry H1047R) above, with E542K, R1047H counted along it
T5 sequence (P27986 whole entry partner): as the sequence (P27986 whole entry partner) above

IC50 [1]: 3110 nM
IC50 (PI3Kb (p110b/p85a)): 5590 nM
IC50 (PI3Kd (p110d/p85a)): 714 nM
IC50 (PI3Ka (p110a/p85a)): 1930 nM
IC50 (PI3K (p110a(E542K)/p85a)): 3690 nM
IC50 (PI3Kg (p110g)): 131 nM
IC50 (MTOR/FRAP1): 3320 nM
IC50 (PI3K (p110a(E545K)/p85a)): 4310 nM
Structure (SMILES): CC(=O)OCc1cccc(-c2nc(N3CCOCC3)c3sccc3n2)c1 [Compound 1.015, 3-(4-Morpholinothieno[3,2-d]pyrimidin-2-yl)benzyl acetate]

percent hydrolysis to the parent compound MTPP [2]: 0.18%
Stability in gel formulation ([3]; 80° C. for 10 days): very stable
percent hydrolysis to the parent compound MTPP ([3]; 0 days): 0.09%
percent hydrolysis to the parent compound MTPP ([3]; 5 days): 0.24%
percent hydrolysis to the parent compound MTPP ([3]; 7 days): 0.33%
percent hydrolysis to the parent compound MTPP ([3]; 10 days): 0.43%
Structure (SMILES): CCCCCCCC/C=C\CCCCCCCC(=O)Oc1cccc(-c2nc(N3CCOCC3)c3sccc3n2)c1 [Compound 1.011, 3-(4-Morpholinothieno[3,2-d]pyrimidin-2-yl)phenyl Oleate]

Saturation concentration in the gel formulation [4]: 215 mg/mL
Metabolism to MTPP during permeation through human skin [5]: metabolize into MTPP
Cumulative permeation, Compound 1.006 [6, 7]: 0.0 μg/cm^2
Hydrolysis of Cmpd. 1.006 to MTPP [6, 7]: 100%
Cumulative permeation, Compound 1.006 [6, 8]: 0.0 μg/cm^2
Hydrolysis of Cmpd. 1.006 to MTPP [6, 8]: 100%
Cumulative permeation, Compound 1.006 [6, 9]: 1.0 μg/cm^2
Hydrolysis of Cmpd. 1.006 to MTPP [6, 9]: 96.7%
Cumulative permeation, Compound 1.006 [6, 10]: 13.0 μg/cm^2
Hydrolysis of Cmpd. 1.006 to MTPP [6, 10]: 79.5%
Cumulative permeation, Compound 1.006 [6, 11]: 30.5 μg/cm^2
Hydrolysis of Cmpd. 1.006 to MTPP [6, 11]: 82.0%
Cumulative permeation, Compound 1.006 [6, 12]: 0.0 μg/cm^2
Hydrolysis of Cmpd. 1.006 to MTPP [6, 12]: 100%
Cumulative permeation, Compound 1.006 [6, 13]: 0.5 μg/cm^2
Hydrolysis of Cmpd. 1.006 to MTPP [6, 13]: 93.3%
Cumulative permeation, Compound 1.006 [6, 14]: 0.5 μg/cm^2
Hydrolysis of Cmpd. 1.006 to MTPP [6, 14]: 97.8%
Cumulative permeation, Compound 1.006 [6, 15]: 0.6 μg/cm^2
Hydrolysis of Cmpd. 1.006 to MTPP [6, 15]: 98.9%
Cumulative permeation, Compound 1.006 [6, 16]: 0.6 μg/cm^2
Hydrolysis of Cmpd. 1.006 to MTPP [6, 16]: 99.4%
Relative Purity ([3]; Day 0): 100%
Relative Purity ([3]; Day 5): 94%
Relative Purity ([3]; Day 10): 92%
Structure (SMILES): CCCCCC(=O)Oc1cccc(-c2nc(N3CCOCC3)c3sccc3n2)c1 [Compound 1.006, 3-(4-Morpholinothieno[3,2-d]pyrimidin-2-yl)phenyl Hexanoate]

IC50 [1]: 7.8 nM
IC50 (PI3Kb (p110b/p85a)): 56 nM
IC50 (PI3Kd (p110d/p85a)): 17 nM
IC50 (PI3Ka (p110a/p85a)): 7 nM
IC50 (PI3K (p110a(E542K)/p85a)): 9 nM
IC50 (PI3Kg (p110g)): 61 nM
IC50 (MTOR/FRAP1): 113 nM
IC50 (PI3K (p110a(E545K)/p85a)): 9.8 nM
Structure (SMILES): OCc1cccc(-c2nc(N3CCOCC3)c3sccc3n2)c1 [MTPPM, (3-(4-morpholinothieno[3,2-d]pyrimidin-2-yl)phenyl)methanol, reference compound]
